Data from paper PMC8950706, “Influence of Substitutions in the Binding Motif of Proline-Rich Antimicrobial Peptide ARV-1502 on 70S Ribosome Binding and Antimicrobial Activity” (International Journal of Molecular Sciences, 2022).
≈ marks a conversion by molar mass, not a printed value. Marks after values point to notes of the source that are not given here. Square brackets hold non-standard residues; d marks the D form. Peptide text beside a SMILES is read from it. Ac6c = NC1(C(=O)O)CCCCC1

Experiments:
[1] = system: E. coli BW25113; experiment: MIC, liquid broth micro dilution, wild type; type: cell-based, Escherichia coli
Protocol: (§1) MIC values were determined using a liquid broth micro dilution assay in sterile 96-well plates (polystyrene F-bottom, Greiner Bio-One GmbH) and a total volume of 100 μL per well. Aqueous peptide solutions (10 g/L) were serially twofold diluted in 25% Mueller-Hinton broth 2 (25% MBH2) or 33% tryptic soy broth (33% TSB) starting at a peptide concentration of 128 mg/L (50 μL/well). Overnight cultures of bacteria grown in 25% MHB2 (or 33% TSB) were diluted 30-fold in 25% MHB2 (or 33% TSB). After an incubation period of 4 h (37 °C, 200 rpm), cells were diluted to 1.5 × 10^7 cfu/mL, based on a McFarland test, and 50 μL were added to each well (final concentration of 7.5 × 10^6 […]). The plates were incubated (37 °C, 20 h) and the optical density was recorded at 595 nm using a microplate reader ([…]^TM, Beckmann Coulter). The MIC was defined as the lowest peptide concentration preventing visible bacterial growth.

[2] = system: E. coli BW25113 ∆sbmA ∆mdtM; type: cell-based, Escherichia coli; conditions: for Effect of the additional mdtM knockout on antibacterial activity: ∆sbmA ∆mdtM compared with ∆sbmA; for Minimal Inhibitory Concentration, 25% MHB2, ∆sbmA ∆mdtM: 25% MHB2, 37 °C; for Minimal Inhibitory Concentration, 25% MHB2, ∆sbmA ∆mdtM / Minimal Inhibitory Concentration, 33% TSB, ∆sbmA ∆mdtM: 20 h, at least duplicates on two days, * once on two days, ** duplicate on one day; for Minimal Inhibitory Concentration, 33% TSB, ∆sbmA ∆mdtM: 37 °C
Protocol: as §1

[3] = system: E. coli BW25113 ∆sbmA; type: cell-based, Escherichia coli; conditions: for Minimal Inhibitory Concentration, 25% MHB2, ∆sbmA: 25% MHB2, 37 °C; for Minimal Inhibitory Concentration, 25% MHB2, ∆sbmA / Minimal Inhibitory Concentration, 33% TSB, ∆sbmA: 20 h, at least duplicates on two days, * once on two days, ** duplicate on one day; for Minimal Inhibitory Concentration, 33% TSB, ∆sbmA: 37 °C
Protocol: as §1

[4] = system: E. coli 70S ribosome; experiment: Cell-free GFP expression assay (in vitro translation); type: biochemical; conditions: for In Vitro Translation (%): GFP expression remaining relative to control, concentration not given (higher concentration 50 µmol/L); for Reduction of GFP expression, 50 µmol/L peptide: cell-free expression, peptide-to-ribosome ratio of 25, GFP fluorescence, 37 °C
Description: Possible effects of ARV-1502 and its substituted analogs on the in vitro translation of the green fluorescent protein (GFP) were probed using the NEB PureExpress Delta RF123 Kit (New England Biolabs, Ipswich, MA, USA). The sfGFP DNA template was amplified from pY71sfGFP plasmid by PCR introducing an UAA stop codon. Release factor 1 (RF1) was 50fold diluted in Pure System Buffer (PSB) containing magnesium acetate (1 mol/L), monopotassium phosphate (0.5 mol/L, pH 7.3), potassium glutamate (1 mol/L), NH4Cl (1 mol/L), calcium chloride (0.5 mol/L), spermidine (1 mol/L), putrescine (0.1 mol/L), and DTT (0.1 mol/L). Each reaction used 35 ng of sfGFP template. Peptides were added at a final concentration of 5 µmol/L and 50 µmol/L. The reaction was started by adding Kit solutions A (2 µL) and B (1.5 µL), diluted RF1 (0.5 µL), sfGFP template (0.25 µL or water as negative control), PSB (0.25 µL), and peptide (0.5 µL or water), mixed, transferred into a black 384-well plate (flat bottom, Greiner Bio-One GmbH), and incubated (37 °C, 2 h). The fluorescence was recorded every 10 min (λexc = 485 nm, λem = 535 nm) in a microplate reader (Gemini EM, Molecular Devices LLC, San Jose, CA, USA).

[5] = system: E. coli 70S ribosome; experiment: Competitive FP binding screening assay with Cf-ARV-1502 (relative FP); design: species or system E. coli BW25113; conditions: for Ribosome Binding (%): competitive ribosome binding against Cf-ARV-1502 (relative FP; values match 1.2 µmol/L peptide), low value = strong competition; for Inhibition of Cf-ARV-1502 binding to the 70S ribosome (in words): Figure 3: peptide concentration 1.2 µmol/L
Protocol: E. coli 70S ribosomes were prepared using a previously described protocol that was slightly modified. Briefly, E. coli BW25113 was cultivated in Luria-Bertani (LB) medium and cells were harvested after reaching an optical density of ~4 at 600 nm by centrifugation (5000× g, 15 min, 4 °C, Rotor JLA 8.100, Avanti J-20 XP, Beckmann Coulter, Krefeld, Germany). The cell pellets were frozen and stored at −80 °C. Cells were resuspended in ribosome buffer (2 mL/g cells; 20 mmol/L HEPES-KOH, 6 mmol/L MgCl2, 30 mmol/L NH4Cl, 4 mmol/L 2-mercaptoethanol, pH 7.6). Lysozyme (0.25 g/L cell suspension) was added, and the mixture was incubated on ice for 30 min. Cells were disrupted using the bead mill homogenizer FastPrep-24™ 5G (40 s, 4 m/s, 6 cycles, MP Biomedicals Germany GmbH, Eschwege, Germany) and zirconia/silica beads (0.1 mm diameter). The lysate was centrifuged (1500× g, 5 min, 4 °C, Rotor S4180, Allegra 21R, Beckmann Coulter) and the supernatant was incubated with DNase (5 U/mL) on ice for 60 min. The cell debris was removed by two centrifugation steps (16,000× g, 30 min, 4 °C followed by 32,000× g, 60 min, 4 °C, Rotor JA 30.50 Ti, Avanti J-30I, Beckmann Coulter). The ribosome was pelleted by ultracentrifugation (165,000× g, 17 h, 4 °C, Rotor 70 Ti, Optima LE-80K, Beckmann Coulter), resuspended in ribosome buffer (0.1 mL/g pellet), and stored at −80 °C. The ribosome concentration was determined by recording the absorbance of RNA at 260 nm (NanoPhotometer NP80, Implen GmbH, München, Germany) assuming that 1 AU corresponds to a ribosome concentration of 28 nmol/L. The molecular weight of the E. coli 70S ribosome was assumed to be 2.3 MDa.
E. coli 70S ribosomes and Cf-ARV-1502 were incubated with four different concentrations of unlabeled peptides chosen based on the IC50 curves of reference peptide ARV-1502. Each peptide was diluted in ribosome buffer to obtain a concentration of 4.8 µmol/L and transferred to a 384-well-plate. Peptides were then twofold serially diluted in four steps from 4.8 to 0.6 µmol/L (20 µL). The ribosome extract was diluted in ribosome buffer to reach a concentration of 2 µmol/L and 10 µL were added to each well to obtain a final ribosome concentration of 0.5 µmol/L. Plates were centrifuged (2 min, 500× g, Rotor S2096, Allegra^TM 21R, Beckmann Coulter) and incubated at 28 °C for 90 min. Cf-labeled ARV-1502 was added (10 µL; final concentration of 20 nmol/L) and the plates were again centrifuged and incubated (28 °C, 90 min). After incubation, fluorescence polarization was recorded on a […]^TM microplate reader (λex = 485 nm, λem = 535 nm).
On each plate 12 minimum (30 µL ribosome buffer and 10 µL Cf-ARV-1502) and 12 maximum (20 µL ribosome buffer, 10 µL ribosome solution and 10 µL Cf-ARV-1502) control samples were added. Fluorescence polarization of screening samples was normalized to the fluorescence polarization of these control samples. All screening samples were measured in triplicates and the whole experiment was repeated once on another day.

[6] = 33% TSB, 37 °C, 20 h, at least duplicates on two days, * once on two days, ** duplicate on one day

| Compound | MIC (µg/mL), Table 3 ([1]; BW25113, 4 h) | Minimal Inhibitory Concentration, 25% MHB2, wt ([1]; BW25113, 20 h) | Minimal Inhibitory Concentration, 33% TSB, wt ([1]; BW25113, 20 h) | Effect of the additional mdtM knockout on antibacterial activity [2] | Effect of deletion of SbmA on antibacterial activity ([3]; ∆sbmA compared with wild-type strain) | In Vitro Translation (%) [4] | Reduction of GFP expression, 50 µmol/L peptide [4] | Ribosome Binding (%) [5] | Minimal Inhibitory Concentration, 25% MHB2, wt ([1]; 25% MHB2, 37 °C, 20 h, at least duplicates on two days, * once on two days, ** duplicate on one day) | Minimal Inhibitory Concentration, 33% TSB, wt [1, 6] | Minimal Inhibitory Concentration, 25% MHB2, ∆sbmA ∆mdtM [2] | Minimal Inhibitory Concentration, 33% TSB, ∆sbmA ∆mdtM [2] | Minimal Inhibitory Concentration, 25% MHB2, ∆sbmA [3] | Minimal Inhibitory Concentration, 33% TSB, ∆sbmA [3] | Inhibition of Cf-ARV-1502 binding to the 70S ribosome (in words) [5] | MIC / activity against E. coli ([1]; BW25113, 4 h) | MIC / activity against E. coli ([1]; medium not given) |
| --- | --- | --- | --- | --- | --- | --- | --- | --- | --- | --- | --- | --- | --- | --- | --- | --- | --- |
| CC(C)C[C@H](NC(=O)[C@H](Cc1ccc(O)cc1)NC(=O)[C@@H]1CCCN1C(=O)[C@H](CCCNC(=N)N)NC(=O)[C@@H]1CCCN1C(=O)[C@H](Cc1ccccc1)NC(=O)[C@H](Cc1ccccc1)NC(=O)[C@@H]1CCCN1C(=O)[C@H](CCCNC(=N)N)NC(=O)C1(N)CCCCC1)C(=O)N1CCC[C@H]1C(=O)N[C@@H](CC(C)C)C(=O)N1CCC[C@H]1C(=O)N[C@@H](CCCNC(=N)N)C(=O)N1CCC[C@H]1C(=O)N1CCC[C@H]1C(=O)N[C@@H](CCCNC(=N)N)C(=O)N1CCC[C@H]1C(=O)N[C@H](C(=O)N[C@@H](CCCNC(=N)N)C(N)=O)C(C)C [Peptide 102] (H-[Ac6c]RPFFPRPYLPLPRPPRPVR-NH2; N-terminus and C-terminus assumed) | 32 to 64 µg/mL | 32 to 64 µg/mL | 64 µg/mL | no effect | no effect | 78.9 ± 3.5% | ~ 25% | 76.5 ± 5.6% | – | – | – | – | – | – | – | – | – |
| CC(C)C[C@H](NC(=O)[C@H](Cc1ccc(O)cc1)NC(=O)[C@@H]1CCCN1C(=O)[C@H](CCCNC(=N)N)NC(=O)[C@@H]1CCCN1C(=O)[C@H](Cc1ccccc1)NC(=O)[C@H](Cc1ccccc1)NC(=O)[C@@H]1CCCN1C(=O)[C@H](CCCNC(=N)N)NC(=O)C1(N)CCCCC1)C(=O)N[C@@H](CO)C(=O)N[C@@H](CCCNC(=N)N)C(=O)N1CCC[C@H]1C(=O)N[C@@H](CCCNC(=N)N)C(=O)N1CCC[C@H]1C(=O)N1CCC[C@H]1C(=O)N[C@@H](CCCNC(=N)N)C(=O)N1CCC[C@H]1C(=O)N[C@H](C(=O)N[C@@H](CCCNC(=N)N)C(N)=O)C(C)C [Peptide 99] (H-[Ac6c]RPFFPRPYLSRPRPPRPVR-NH2) | – | – | – | no effect | – | – | – | – | 16 to 32 µg/mL | 64 µg/mL | 32 µg/mL | 128 µg/mL | 32 µg/mL | 128 µg/mL | did not inhibit the binding of Cf-ARV-1502 | – | – |
| CC(C)[C@H](NC(=O)[C@@H]1CCCN1C(=O)[C@H](CCCNC(=N)N)NC(=O)[C@@H]1CCCN1C(=O)[C@@H]1CCCN1C(=O)[C@H](CCCNC(=N)N)NC(=O)[C@@H]1CCCN1C(=O)[C@H](CCCNC(=N)N)NC(=O)[C@@H]1CCCN1C(=O)[C@H](Cc1ccccc1)NC(=O)[C@H](CCCCN)NC(=O)[C@@H]1CCCN1C(=O)[C@H](CCCNC(=N)N)NC(=O)[C@@H]1CCCN1C(=O)[C@H](CCCCN)NC(=O)[C@H](CC(=O)O)NC(=O)[C@@H]1CCCN1C(=O)[C@H](CCCNC(=N)N)NC(=O)C1(N)CCCCC1)C(=O)N[C@@H](CCCNC(=N)N)C(N)=O [Peptide 123] (H-[Ac6c]RPDKPRPKFPRPRPPRPVR-NH2) | – | 32 µg/mL | – | weakened the activity | – | – | – | – | – | 128 µg/mL | 128 µg/mL | >128 µg/mL | 64 µg/mL | >128 µg/mL | did not inhibit the binding of Cf-ARV-1502 | 16 to 32 µg/mL | – |
| CC(C)[C@H](NC(=O)[C@@H]1CCCN1C(=O)[C@H](CCCNC(=N)N)NC(=O)[C@@H]1CCCN1C(=O)[C@@H]1CCCN1C(=O)[C@H](CCCNC(=N)N)NC(=O)[C@@H]1CCCN1C(=O)[C@H](CCCNC(=N)N)NC(=O)[C@@H]1CCCN1C(=O)[C@H](Cc1ccccc1)NC(=O)[C@H](Cc1ccc(O)cc1)NC(=O)[C@@H]1CCCN1C(=O)[C@H](CCCNC(=N)N)NC(=O)[C@@H]1CCCN1C(=O)[C@H](Cc1ccccc1)NC(=O)[C@H](Cc1ccccc1)NC(=O)[C@@H]1CCCN1C(=O)[C@H](CCCNC(=N)N)NC(=O)C1(N)CCCCC1)C(=O)N[C@@H](CCCNC(=N)N)C(N)=O [Peptide 96] (H-[Ac6c]RPFFPRPYFPRPRPPRPVR-NH2; N-terminus and C-terminus assumed) | 16 µg/mL (≈ 6.25 µM) | 16 µg/mL | 32 * µg/mL | no effect | – | 77.2 ± 1.9% | ~ 25% | 62.9 ± 4.8% | – | – | – | – | – | – | – | – | – |
| CC(C)C[C@H](NC(=O)[C@H](Cc1ccc(O)cc1)NC(=O)[C@@H]1CCCN1C(=O)[C@H](CCCNC(=N)N)NC(=O)[C@@H]1CCCN1C(=O)[C@H](CC(=O)O)NC(=O)[C@H](CO)NC(=O)[C@@H]1CCCN1C(=O)[C@H](CCCNC(=N)N)NC(=O)C1(N)CCCCC1)C(=O)N1CCC[C@H]1C(=O)N[C@@H](CCCNC(=N)N)C(=O)N1CCC[C@H]1C(=O)N[C@@H](CCCNC(=N)N)C(=O)N1CCC[C@H]1C(=O)N1CCC[C@H]1C(=O)N[C@@H](CCCNC(=N)N)C(=O)N1CCC[C@H]1C(=O)N[C@H](C(=O)N[C@@H](CCCNC(=N)N)C(N)=O)C(C)C [Peptide 50] (H-[Ac6c]RPSDPRPYLPRPRPPRPVR-NH2) | 128 µg/mL (≈ 52.6 µM) | 128 µg/mL | 64 µg/mL | – | – | 113.7 ± 9.1% | – | 67.9 ± 4.8% | – | – | >128 µg/mL | >128 µg/mL | >128 µg/mL | >128 µg/mL | inhibited Cf-ARV-1502 | – | low activity against E. coli |
